Results: ChEMBL document CHEMBL1201862, “PubChem BioAssay data set” (2004)
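Dose response: 5 concentrations. Exposure: 48 h. Format: 96-well plates. Endpoint: linear interpolation; highest concentration if not reached. GI50 is the concentration that inhibits growth by half.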 Activity calls are given as the source filed them. No stated cut-off is given here; in the data, active = GI50 up to about 1.1 µM and inactive = higher.

How the values were obtained:
Experiment in all cases: NCI tumour cell line growth inhibition, 48 h
[1] = test system: A549
[2] = test system: ACHN
[3] = test system: BT-549
[4] = test system: DU-145
[5] = test system: HCT-116
[6] = test system: HCT-15
[7] = test system: HL-60
[8] = test system: HOP-62
[9] = test system: K562
[10] = test system: KM12
[11] = test system: LOX IMVI
[12] = test system: MOLT-4
[13] = test system: NCI-H23
[14] = test system: NCI-H522
[15] = test system: RXF 393
[16] = test system: SF-295
[17] = test system: SF-539
[18] = test system: SK-MEL-2
[19] = test system: SN12C
[20] = test system: OVCAR-3

Structure (SMILES) | GI50 [1] | GI50 [2] | GI50 [3] | GI50 [4] | GI50 [5] | GI50 [6] [µM] | GI50 [7] | GI50 [8] | GI50 [9] | GI50 [10] | GI50 [11] | GI50 [12] | GI50 [13] | GI50 [14] | GI50 [15] | GI50 [16] | GI50 [17] | GI50 [18] | GI50 [19] | GI50 [20]
Clc1ccc(/C(=C\c2ccccc2)Cn2ccnc2)cc1 | 18 µM (inactive) | 16.6 µM (inactive) | 14.4 µM (inactive) | 20.1 µM (inactive) | 14.8 µM (inactive) | 17.8 | 14.1 µM (inactive) | 15.9 µM (inactive) | 9.93 µM (inactive) | 4.93 µM (inactive) | 8.83 µM (inactive) | 21.1 µM (inactive) | 28.9 µM (inactive) | 8.15 µM (inactive) | 17.3 µM (inactive) | 17.9 µM (inactive) | 16.3 µM (inactive) | 14.3 µM (inactive) | 27.4 µM (inactive) | 
CCc1n[nH]c(=O)n1/N=C/c1c(O)ccc2ccccc12 | > 100 µM (inactive) | > 100 µM (inactive) | > 100 µM (inactive) | > 100 µM (inactive) | > 100 µM (inactive) | > 100 |  | > 100 µM (inactive) | > 100 µM (inactive) | > 100 µM (inactive) | > 100 µM (inactive) | > 100 µM (inactive) | > 100 µM (inactive) | > 100 µM (inactive) | > 100 µM (inactive) | > 100 µM (inactive) | > 100 µM (inactive) | > 100 µM (inactive) | > 100 µM (inactive) | > 100 µM (inactive)
CN1CCC23c4c5ccc(Oc6nnnn6-c6ccccc6)c4OC2c2[nH]c4ccccc4c2CC3(O)C1C5 (centres undefined) | 3.96 µM (inactive) | 1.74 µM (inactive) | 16.5 µM (inactive) | 7.16 µM (inactive) | 1.83 µM (inactive) | 2.43 | 1.81 µM (inactive) | 3.24 µM (inactive) | 1.81 µM (inactive) | 2.82 µM (inactive) | 1.89 µM (inactive) | 1.84 µM (inactive) | 16.3 µM (inactive) | 2 µM (inactive) | 2.28 µM (inactive) | 3.95 µM (inactive) | 2.62 µM (inactive) | 1.78 µM (inactive) | 2.75 µM (inactive) | 9.4 µM (inactive)
CCOC(=O)c1c(N2CCOCC2)[nH]c(=O)c(C(c2cccs2)c2c(O)c(C(=O)OCC)c(N3CCOCC3)[nH]c2=O)c1O | > 100 µM (inactive) | > 100 µM (inactive) | > 100 µM (inactive) | > 100 µM (inactive) | > 100 µM (inactive) | > 100 |  | > 100 µM (inactive) | > 100 µM (inactive) | > 100 µM (inactive) | > 100 µM (inactive) | > 100 µM (inactive) | > 100 µM (inactive) | > 100 µM (inactive) | > 100 µM (inactive) | > 100 µM (inactive) | > 100 µM (inactive) | > 100 µM (inactive) | > 100 µM (inactive) | > 100 µM (inactive)
O=S(=O)(c1ccc(-c2nnc(-c3ccc(F)cc3)o2)cc1)c1ccc(-c2nnc(-c3ccc(F)cc3)o2)cc1 | > 100 µM (inactive) | 14.7 µM (inactive) | 91 µM (inactive) | > 100 µM (inactive) | > 100 µM (inactive) | > 100 | > 100 µM (inactive) | 27 µM (inactive) | > 100 µM (inactive) | > 100 µM (inactive) | > 100 µM (inactive) | > 100 µM (inactive) | > 100 µM (inactive) | > 100 µM (inactive) | 22.2 µM (inactive) | 55.3 µM (inactive) | 50.4 µM (inactive) | > 100 µM (inactive) | > 100 µM (inactive) | > 100 µM (inactive)
O=c1[nH]c2[nH]c(-c3ccc(Br)cc3)cc2c2ccccc12 |  | 66.8 µM (inactive) | 76.4 µM (inactive) | > 100 µM (inactive) | 43.2 µM (inactive) | > 100 | 13.5 µM (inactive) | 22.1 µM (inactive) | 27.1 µM (inactive) | > 100 µM (inactive) | > 10 µM (inactive) | 12 µM (inactive) | > 100 µM (inactive) | > 100 µM (inactive) | 24.7 µM (inactive) | 70 µM (inactive) | > 100 µM (inactive) | > 100 µM (inactive) | 41.4 µM (inactive) | > 100 µM (inactive)
COC(=O)/C(=N/NC(N)=O)C(C(=O)C(=O)Nc1ccc(C)cc1)c1nc2ccc(C(=O)c3ccccc3)cc2nc1O (centres undefined) | > 100 µM (inactive) | > 100 µM (inactive) | > 100 µM (inactive) | > 100 µM (inactive) | > 100 µM (inactive) | > 100 | 67.9 µM (inactive) | > 100 µM (inactive) |  | 66.7 µM (inactive) | > 100 µM (inactive) | 50.4 µM (inactive) | > 100 µM (inactive) | 50.5 µM (inactive) | 61.9 µM (inactive) | > 100 µM (inactive) | 85.1 µM (inactive) | > 100 µM (inactive) | > 100 µM (inactive) | > 100 µM (inactive)
CC(=O)N1N(c2ccc([N+](=O)[O-])cc2)C(=O)C1(C)C | > 10 µM (inactive) | 19.7 µM (inactive) | 11.9 µM (inactive) | 35.6 µM (inactive) |  | 15.7 |  | 19.3 µM (inactive) | 17 µM (inactive) | 16.7 µM (inactive) | 11.6 µM (inactive) | 15.5 µM (inactive) | 16.7 µM (inactive) | 12.1 µM (inactive) | 18 µM (inactive) | 31.4 µM (inactive) | 20.9 µM (inactive) | 19.1 µM (inactive) | 16.5 µM (inactive) | 19.3 µM (inactive)
Brc1cccc(C2ON=C(c3ccccc3)N2C23CC4CC(CC(C4)C2)C3)c1 (centres undefined) | > 10 µM (inactive) | > 10 µM (inactive) | > 10 µM (inactive) | > 10 µM (inactive) | > 10 µM (inactive) | > 10 |  | > 10 µM (inactive) | > 10 µM (inactive) | > 10 µM (inactive) | > 10 µM (inactive) | > 10 µM (inactive) | > 10 µM (inactive) | > 10 µM (inactive) | > 10 µM (inactive) | > 10 µM (inactive) | > 10 µM (inactive) | > 10 µM (inactive) | > 10 µM (inactive) | > 10 µM (inactive)
CCOC(=O)C(=CN1CCNC1=S)C(=O)OCC | > 100 µM (inactive) | > 100 µM (inactive) | > 100 µM (inactive) | > 100 µM (inactive) | > 100 µM (inactive) | > 100 | > 100 µM (inactive) | > 100 µM (inactive) | > 100 µM (inactive) |  | > 100 µM (inactive) | > 100 µM (inactive) | > 100 µM (inactive) | 62.7 µM (inactive) | > 100 µM (inactive) | > 100 µM (inactive) | > 100 µM (inactive) | > 100 µM (inactive) | > 100 µM (inactive) | 0.288 µM (active)
COc1ccc(O)c(/C=N\Nc2ccccc2)c1 | 6.22 µM (inactive) | 7.85 µM (inactive) | 6.32 µM (inactive) | 25.5 µM (inactive) | 22.6 µM (inactive) | 8.65 | 3.17 µM (inactive) | 44.7 µM (inactive) | 3.19 µM (inactive) |  | 2.44 µM (inactive) | 1.39 µM (inactive) | 10.3 µM (inactive) | 2.32 µM (inactive) | 84.3 µM (inactive) |  | 12.2 µM (inactive) | 4.8 µM (inactive) | 29.6 µM (inactive) | 
COC(=O)C1(C#N)C(C)(C)N=C(c2ccccc2)C12CCCCC2 (centres undefined) | 85.7 µM (inactive) |  | > 100 µM (inactive) | > 100 µM (inactive) | > 100 µM (inactive) | > 100 | 45.4 µM (inactive) | > 100 µM (inactive) | 59.7 µM (inactive) | > 100 µM (inactive) | > 100 µM (inactive) | 45.9 µM (inactive) | > 100 µM (inactive) | > 100 µM (inactive) | > 100 µM (inactive) | 56.4 µM (inactive) | > 100 µM (inactive) | > 100 µM (inactive) | > 100 µM (inactive) | > 100 µM (inactive)
CC(=O)Oc1ccc(/C=C/C(=O)O[C@H]2CCCC[C@@H]2OC(=O)/C=C/c2ccc(OC(C)=O)c(OC(C)=O)c2)cc1OC(C)=O | 6.87 µM (inactive) | 5.83 µM (inactive) | 13.2 µM (inactive) | 13.3 µM (inactive) | 4.58 µM (inactive) | 5.13 |  | 7.38 µM (inactive) | 5.75 µM (inactive) | 8.75 µM (inactive) | 2.49 µM (inactive) | 2.64 µM (inactive) | 8.75 µM (inactive) | 2.81 µM (inactive) | 11.1 µM (inactive) | 4.37 µM (inactive) | 6.38 µM (inactive) | 15.3 µM (inactive) | 9.23 µM (inactive) | 4.74 µM (inactive)
Cc1cc(N(C)C)c2ccccc2[n+]1CCCCCCCCCC[n+]1c(C)cc(N(C)C)c2ccccc21.[O-][Cl+3]([O-])([O-])[O-].[O-][Cl+3]([O-])([O-])[O-] | 0.587 µM (active) | 1.48 µM (inactive) | 0.676 µM (active) | 1.58 µM (inactive) | 0.743 µM (active) | 3.81 | 0.275 µM (active) |  | 0.128 µM (active) | 0.282 µM (active) | 0.871 µM (active) | 0.687 µM (active) | 0.202 µM (active) | 6.1 µM (inactive) | 5.27 µM (inactive) | 1.47 µM (inactive) | 0.991 µM (active) | 0.962 µM (active) | 0.251 µM (active) | 0.486 µM (active)
O=C(O)c1c(Br)c(Br)c(Br)c(Br)c1C1c2ccc(O)cc2Oc2cc(O)ccc21 | > 100 µM (inactive) | > 100 µM (inactive) | > 100 µM (inactive) | > 100 µM (inactive) | > 100 µM (inactive) | > 100 | 0.232 µM (active) | > 100 µM (inactive) | > 100 µM (inactive) | > 100 µM (inactive) | > 100 µM (inactive) | 3.67 µM (inactive) |  | > 100 µM (inactive) | > 100 µM (inactive) | > 100 µM (inactive) | > 100 µM (inactive) | > 100 µM (inactive) | > 100 µM (inactive) | > 100 µM (inactive)
